Laboratory results reported in patent publication EP3398599A1, “COMPOSITIONS AND METHODS FOR PROPHYLAXIS AND TREATMENT OF ADDICTIONS” (priority 2009, dated 2010).
Entries after “also recorded” stand apart in the source; their conditions may differ.

Key:
[1] = tested on: msP rats; assay: Voluntary ethanol intake, acute treatment, free choice between water and 10% alcohol 24 hours a day; format: in vivo; settings: for ethanol intake: 2, 8 and 24 hours
Description: The drug was given orally (OS) via gavage procedure in a volume of 1.0 ml/kg. Yohimbine was dissolved in distilled water and was administered intraperitoneally (IP) in a volume of 1.0 ml/kg. […] These drugs were given orally (OS) via gavage procedure in a volume of 1.0 ml/kg. Yohimbina was dissolved in distilled water and was administered intraperitoneally (IP) in a volume of 1.0 ml/kg. GW9662 was prepared in 5% DMSO and 5% TWIN 80 and was given either IP (1 ml/kg) or intacerebroventricularly (ICV, 1 µl/rat). Antalarmin was prepared in 10 % TWIN 80 and was given IP (1 ml/kg). Ondansetron was prepared in acqueous solution and was given IP (1 ml/kg).
(§1) At the beginning of the experiments, msP rats were allowed free choice between water and 10% (v/v) alcohol 24 h/day for at least 15 days. The fluids were offered in graduated drinking tubes equipped with metallic drinking spouts. The position (to the right or left) of alcohol and water drinking tubes was changed daily to avoid the development of side preference. […] Alcohol, water and food intakes were measured.
MsP rats were first trained to drink 10% (w/v) alcohol for 24 hours a day (free choice between water and ethanol). […] Before starting the treatment, rats were trained to gavage administration procedures for three days, during which they received vehicle (distilled water). […] Drinking experiments started at the beginning of the dark cycle. Alcohol, water and food intakes were monitored at 2, 8 and 24 hours after ethanol was made available.
Before starting the treatment, rats were trained to gavage and IP administration procedures for three days. Experiment was conducted in a between subject design (n = 22). […] Drinking experiments started at the beginning of the dark cycle. Alcohol, water and food intakes were monitored at 2, 8 and 24 hours after ethanol was made available.
The experiment was conduced using a within subject counterbalanced Latine square design, where each animal received all drug doses.
The drinking experiments were conducted at the beginning of the dark cycle, and alcohol, water and food intakes were monitored at 2, 8 and 24 hours after ethanol was made available.
(§2) MsP rats were first trained to drink 10% (w/v) alcohol for 24 hours a day (free choice between water and ethanol). […] Rats treated with drug vehicles served as a control. Before starting the treatment, rats were trained to gavage administration for three days, during which they received drugs vehicle (distilled water). […] Drinking experiments started at the beginning of the dark cycle. Alcohol, water, and food intakes were monitored at 2, 8 and 24 hours after ethanol was made available.
as §2, with “water” for “water,”
as §2, with “water” for “water,”
MsP rats were first trained to drink 10% (w/v) alcohol for 24 hours a day (free choice between water and ethanol). […] Rats treated with drug vehicles served as a control. Before starting the treatment, rats were trained to gavage administration for three days, during which they received drugs vehicle (distilled water).

[2] = tested on: heavy tobacco smokers; assay: Pilot study in heavy tobacco smokers (pioglitazone 15-30 mg/daily, varenicline 0.5 to 2.0 mg/day, bupropione 150 mg/kg); format: in vivo, human; settings: for STAI score (anxiety): over 10 treatment weeks
Text: […] Patients were instructed to record in a personal logbook the number of cigarettes per day and the time of the day smoking occurred. At the end of the study, the logbooks were returned to the clinical personnel who analyzed the data. Every other week, participants were interviewed and subjected to the Spielberger State-Trait Anxiety Inventory (STAI), the Montgomery Asberg Depression Rating Scale (M.A.D.R.S 10 Item), and to a Visual Analogic Scale (VAS) to measure nicotine craving. During the first month of treatment, every two weeks, ACTH and cortisol levels were also monitored to evaluate HPA activation before and during treatment.

[3] = tested on: CD mice; assay: Morphine-induced analgesic tolerance, tail-flick test; settings: mouse, in vivo
Description: All procedures were conducted in adherence to the European Community Council Directive for Care and Use of Laboratory Animals.
Mice were divided into 6 groups. Group 1 (n=8) received drug vehicles (veh/veh). […] Animals were treated twice daily (between 9:00 and 10:00 a.m. and 9:00 and 10:00 p.m.).
Morphine hydrochloride was purchased from Salars (Milano, Italy). Morphine (30 mg/kg) was dissolved in NaCl […] and was injected intraperitoneally (IP) twice a day at the indicated doses in a volume of 0.2 ml per mice. […] It was dissolved in distilled water and was administered per o.s. at the doses of 10 mg/kg and 30 mg/kg in a volume of 0.6 ml per mice.
Two different tests were used to monitor analgesic responses. The tail-flick test was performed 45 min after the morning injection of morphine, and the tail-immersion test was performed 45 min after the evening injection of morphine.
For the tail-flick test, each mouse was gently restrained in a soft tissue pocket, and the tail (1 cm from the tip) was exposed to a hot light beam. Latency for tail-flick was measured with a 6 seconds cut-off time. For the tail-immersion test, each mouse was restrained in a soft tissue pocket, and the distal half of the tail dipped into a water bath set at 52 C°. Latency for removing the tail from the hot water was measured with a 10 seconds cut-off time.

[4] = tested on: CD mice; settings: mouse, in vivo
[5] = tested on: msP rats; assay: Yohimbine-induced (stress-induced) reinstatement of alcohol seeking; format: in vivo; settings: naltrexone 0.25 and 1.0 mg/kg IP 1 hour before test
[6] = tested on: msP rats; assay: Voluntary ethanol intake, subchronic (7 days) treatment, alcohol available 24 hours/day; format: in vivo; settings: naltrexone […] IP alone or with pioglitazone 10.0 or 30.0 mg/kg OS, overall p<0.01
Description: as §1
Before starting the treatment, rats were trained to gavage administration procedures for three days, during which they received vehicle (distilled water).
(§3) Alcohol, water and food intakes were monitored at 2, 8 and 24 hours. Fluids and food intakes were monitored for three additional days after the end of the drug treatment period.
as §3

[7] = tested on: human patients; assay: Observational study of alcohol abuse in human patients (pioglitazone 30 mg/day or naltrexone 50 mg/day + psychotherapy); format: in vivo; settings: for CDT: mean value of blood tests
Text: Patients were instructed to record in a personal logbook the number of drinks per day and the time of the day drinks occurred. At the end of the study, the logbooks were returned to the clinical personnel who analyzed the data.
In addition, biochemical parameters to ascertain alcohol detoxification and to measure recovery of physiological functions (i.e., hepatic function) were monitored monthly. Hematological parameters measured included: mean corpuscular volume (MCV); gamma-GT; aspartate aminotransferase (AST); alanine aminotransferase (ALT); and carbohydrate-deficient transferring (CDT). MCV and CDT are biomarkers for ethanol consumption, and GGT, ALT and AST are biomarkers for hepatic functionality.
Data were analyzed by analysis of variance followed by Newman-Keuls post hoc tests when appropriate.

[8] = tested on: msP rats; assay: Cue-induced reinstatement of alcohol seeking; format: in vivo; settings: naltrexone, both doses (0.25 and 1.0 mg/kg) one hour before test; p<0.01
[9] = T=0 (beginning of the treatment)

O=C(Nc1ccccc1)c1cc([N+](=O)[O-])ccc1Cl [GW9662]
ethanol intake per se ([1]; GW9662 5 µg/rat ICV alone): did not significantly affect ethanol intake per se
pioglitazone-induced reduction of ethanol intake ([1]; GW9662 5 µg/rat ICV with pioglitazone 30 mg/kg OS): completely prevented the effect of pioglitazone
pioglitazone-induced reduction of ethanol intake ([1]; GW9662 IP (1.0 and 5.0 mg/kg) with pioglitazone 30 mg/kg OS): blocked the effect of pioglitazone in a dose related manner
ethanol drinking ([1]; GW9662 alone (1.0 and 5.0 mg/kg IP)): did not modify ethanol drinking

CC(NC(C)(C)C)C(=O)c1cccc(Cl)c1 (centres unmarked) [bupropione]
STAI score (anxiety) [2]: not with bupropione

CNCCC(Oc1ccc(C(F)(F)F)cc1)c1ccccc1 (centres unmarked) [fluoxetine]
ethanol intake in msP rats in a pilot study ([1]; fluoxetine 3.0 mg/kg OS): did not reduce ethanol intake
ethanol intake ([1]; fluoxetine alone 3.0 mg/kg OS, given twice): did not significantly modify ethanol intake

NCC1(CC(=O)O)CCCCC1 [gabapentin]
ethanol intake in msP rats in a pilot study ([1]; gabapentin 60.0 mg/kg OS): did not reduce ethanol intake
ethanol intake ([1]; gabapentin alone 60.0 mg/kg OS): did not significantly modify ethanol intake

CC[C@@H](C(N)=O)N1CCCC1=O [levetiracetam]
ethanol intake in msP rats in a pilot study ([1]; levetiracetam 100.0 mg/kg OS): did not reduce ethanol intake
ethanol intake ([1]; levetiracetam alone 100.0 mg/kg OS, given twice): did not significantly modify ethanol intake

CN1CCN2c3ncccc3Cc3ccccc3C2C1 (centres unmarked) [mirtazapine]
ethanol intake in msP rats in a pilot study ([1]; mirtazapine 5.0 mg/kg OS): did not reduce ethanol intake
ethanol intake ([1]; mirtazapine alone 5.0 mg/kg OS, given twice): did not significantly modify ethanol intake

CN1CC[C@]23c4c5ccc(O)c4O[C@H]2[C@@H](O)C=C[C@H]3[C@H]1C5 [morphine]
time to tail-flick on day 1, 3 and 5 [3]: significantly increased the time to tail-flick
time to tail-flick on test days 7 and 9 [3]: non significant difference from controls
analgesic effect (tail-immersion) on test day 9 [4]: marginally significant
tail-immersion latency on day 1, 3, 5, and 7 [4]: significantly increased the time to tail-flick

O=C1CC[C@@]2(O)[C@H]3Cc4ccc(O)c5c4[C@@]2(CCN3CC2CC2)[C@H]1O5 [naltrexone]
yohimbine-induced reinstatement of alcohol seeking [5]: did not significantly reduce the effect of yohimbine
voluntary ethanol intake [6]: significantly reduced
Depression Scale M.A.D.R.S (mean score values) [7, 9]: 19
Depression Scale M.A.D.R.S (mean score values) ([7]; T=1.1 (month 1, week 1)): 16
Depression Scale M.A.D.R.S (mean score values) ([7]; T=1.2 (month 1, week 2)): 18
effect on daily drinks, naltrexone vs pioglitazone ([7]; first two weeks of treatment, P<0.05): more effective than pioglitazone
CDT ([7]; T0): 3.6
CDT ([7]; T1= 4 weeks): 3.0
CDT ([7]; T2= 8 weeks): 2.5
decrease in MCV and CDT ([7]; naltrexone treated patients (NTX), two months): to a lesser extent compared to the pioglitazone group
all the five biomarkers (MCV, GGT, ALT, AST, CDT): difference from controls (psychotherapy alone) ([7]; post hoc tests, P<0.001): statistical difference
anxiety score: difference from controls ([7]; post hoc tests, P<0.001): statistically significant difference
obsessive compulsive score for alcohol (OCDS): decrease, difference from controls ([7]; post hoc tests, P<0.001): statistically significant difference
depression score (MADRS): difference from controls ([7]; post hoc tests, P<0.001 for pioglitazone): not naltrexone
hepatic parameters (GGT, ALT, AST) ([7]; two months of treatment): ameliorated
daily ethanol intake (number of daily drinks) ([7]; vs psychotherapy only): significantly reduced daily ethanol intake
number of abstinence days ([7]; vs psychotherapy only): increased the number of abstinence days
conditioned (cue-induced) reinstatement of alcohol-seeking [8]: significantly reduced reinstatement of ethanol seeking; also recorded: significantly reduced cue-induced reinstatement of alcohol-seeking

Cc1nccn1CC1CCc2c(c3ccccc3n2C)C1=O (centres unmarked) [ondansetron]
ethanol intake in msP rats in a pilot study ([1]; ondansetron 1.0 mg/kg IP): did not reduce ethanol intake
ethanol intake ([1]; ondansetron alone 1.0 mg/kg IP, given twice): did not significantly modify ethanol intake

CCc1ccc(CCOc2ccc(CC3SC(=O)NC3=O)cc2)nc1 (centres unmarked) [pioglitazone]
Anxiety Score obtained using The STAY-Y1 scale (mean score values) [7, 9]: 59

CC1(C)O[C@@H]2[C@@H](CO[C@@]3(COS(N)(=O)=O)OC(C)(C)O[C@@H]23)O1 [topiramate]
ethanol intake in msP rats in a pilot study ([1]; topiramate 30.0 mg/kg OS): did not reduce ethanol intake
ethanol intake ([1]; topiramate alone 30.0 mg/kg OS, given twice): did not significantly modify ethanol intake
ethanol intake at 2 hours ([1]; topiramate alone 30.0 mg/kg OS, p<0.05): significant reduction of ethanol intake at 2 hours

c1cnc2cc3c(cc2n1)[C@@H]1CNC[C@H]3C1 [varenicline]
Percent inhibition of smoking ([2]; Patient 1, T=0 (baseline expressed as 100%)): 100%
Percent inhibition of smoking ([2]; Patient 1, T=2 weeks of treatment): 34%
Percent inhibition of smoking ([2]; Patient 1, T=4 weeks of treatment): 46%
Percent inhibition of smoking ([2]; Patient 1, T=6 weeks of treatment): 61%
Percent inhibition of smoking ([2]; Patient 1, T=8 weeks of treatment): 80%
Percent inhibition of smoking ([2]; Patient 1, T=10 weeks of treatment): 93%
Percent inhibition of smoking ([2]; Patient 2, T=0 (baseline expressed as 100%)): 100%
Percent inhibition of smoking ([2]; Patient 2, T=2 weeks of treatment): 22%
Percent inhibition of smoking ([2]; Patient 2, T=4 weeks of treatment): 47%
Percent inhibition of smoking ([2]; Patient 2, T=6 weeks of treatment): 63%
Percent inhibition of smoking ([2]; Patient 2, T=8 weeks of treatment): 87%
Percent inhibition of smoking ([2]; Patient 2, T=10 weeks of treatment): 100%
Percent inhibition of smoking ([2]; Patient 3, T=0 (baseline expressed as 100%)): 100%
Percent inhibition of smoking ([2]; Patient 3, T=2 weeks of treatment): 38%
Percent inhibition of smoking ([2]; Patient 3, T=4 weeks of treatment): 54%
Percent inhibition of smoking ([2]; Patient 3, T=6 weeks of treatment): 62%
Percent inhibition of smoking ([2]; Patient 3, T=8 weeks of treatment): 79%
Percent inhibition of smoking ([2]; Patient 3, T=10 weeks of treatment): 94%
STAI score (anxiety) [2]: significantly reduced
subjects reaching complete abstinence ([2]; pioglitazone 4 patients, varenicline 3 patients): one of them
percent of weekly smoked cigarettes: pioglitazone vs varenicline ([2]; post hoc tests): no significant differences
